Experimental findings from patent US12281122B1, “PI3K inhibitors” (Cogent Biosciences, Inc., priority 2023, dated 2025) are described below.

The structures appear in SMILES notation.

Assay [1] concerns T47D (PI3Kα-H1047R) cell line. The assay is described as follows: HTRF phospho-AKT(S473) cell assay in T47D cells. The assay is classed as cell-based, human. The method in brief: (§1)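 Cells plated overnight (T47D in RPMI/10% FBS/0.2 units/mL insulin; SKBR3 in McCoy's 5A/10% FBS), then given 12-point 1:3 compound series (top 5 μM T47D, 10 μM SKBR3; ≤0.5% DMSO) for 2 h at 37° C. SKBR3 stimulated with 70 ng/ml PDGF-BB for final 15 min. Lysate pAKT(S473) by HTRF; IC50 calculated.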

In assay [2] the test system is SKBR3 (PI3Kα-Wild Type) cell line. The assay is described as follows: HTRF phospho-AKT(S473) cell assay in SKBR3 cells. It is filed as cell-based, human. The method in brief: as §1
In general terms: In TR-FRET formats the signal depends on donor and acceptor labels being close together.

[3] abbreviates: Homo sapiens; HTRF phospho-AKT(S473), T47D (PI3Kα-H1047R) cells, 2 hours compound incubation.
Setting [4] is: Homo sapiens, SK-BR-3; HTRF phospho-AKT(S473), SKBR3 (PI3Kα-Wild Type) cells, 2 hours compound incubation, PDGF-BB stimulated.
[5] abbreviates: Homo sapiens; T47D (PI3Kα-H1047R) cells, HTRF phospho-AKT(S473), 2 hours compound incubation.
Where [6] appears, read: Homo sapiens, SK-BR-3; SKBR3 (PI3Kα-Wild Type) cells, HTRF phospho-AKT(S473), 2 hours compound incubation, PDGF-BB stimulated.

The term IC50 denotes the concentration that gives 50% inhibition. The low end stands for higher potency, the high end for lower potency. Regarding `Cc1cc([C@@H](C)Nc2ccc(Cl)nc2C(=O)NS(C)(=O)=O)c2nc(N3C[C@@H]4[C@H](C3)[C@H]4n3cnc(C)n3)n(C)c(=O)c2c1` [Compound 566, 6-chloro-3-(((R)-1-(3,6-dimethyl-2-((1R,5S,6S)-6-(3-methyl-1H-1,2,4-triazol-1-yl)-3-azabicyclo[3.1.0]hexan-3-yl)-4-oxo-3,4-dihydroquinazolin-8-yl)ethyl)amino)-N-(methylsulfonyl) picolinamide], the concentration for half-maximal inhibition (IC50) in assay [1] (setting [3]) lay within 250 to 500 nM; in assay [2] (setting [4]), 1000 to 5000 nM.

In the case of `Cc1cc([C@@H](C)Nc2ccc(Cl)nc2C(=O)NS(C)(=O)=O)c2nc(N3CCC[C@H](c4nccc(C)n4)C3)n(C)c(=O)c2c1` (relative stereo) [Compound 648, 6-chloro-3-(((R)-1-(3,6-dimethyl-2-((R*)-3-(4-methylpyrimidin-2-yl)piperidin-1-yl)-4-oxo-3,4-dihydroquinazolin-8-yl)ethyl)amino)-N-(methylsulfonyl) picolinamide], the half-maximal inhibitory concentration (IC50) in assay [1] (setting [3]) is 1000 to 5000 nM; in assay [2] (setting [4]), no less than 5000 nM.

For the compound `Cc1cc([C@@H](C)Nc2ccc(Cl)nc2C(=O)NS(C)(=O)=O)c2nc(N3CCC(c4ccc(N(C)C)nc4)CC3)n(C)c(=O)c2c1` [Compound 242, (R)-6-chloro-3-((1-(2-(4-(6-(dimethylamino)pyridin-3-yl)piperidin-1-yl)-3,6-dimethyl-4-oxo-3,4-dihydroquinazolin-8-yl)ethyl)amino)-N-(methylsulfonyl) picolinamide], the 50% inhibitory concentration (IC50) is less than 250 nM in assay [1] (setting [5]) and 1000 to 5000 nM in assay [2] (setting [6]).

On to `Cc1cc([C@@H](C)Nc2ccc(Cl)nc2C(=O)NS(C)(=O)=O)c2nc(N3CCC4(CCN(c5ccn(C)n5)CC4)C3)n(C)c(=O)c2c1` [Compound 358, (R)-6-chloro-3-((1-(3,6-dimethyl-2-(8-(1-methyl-1H-pyrazol-3-yl)-2,8-diazaspiro[4.5]decan-2-yl)-4-oxo-3,4-dihydroquinazolin-8-yl)ethyl)amino)-N-(methylsulfonyl) picolinamide], for which the IC50 in assay [1] (setting [5]) is less than 250 nM; in assay [2] (setting [6]), 1000 to 5000 nM.

Regarding `Cc1cc([C@@H](C)Nc2ccc(Cl)nc2C(=O)NS(C)(=O)=O)c2nc(N3C[C@@H]4[C@H](C3)[C@H]4c3cc(C)[nH]n3)n(C)c(=O)c2c1` [Compound 510, 6-chloro-3-(((R)-1-(3,6-dimethyl-2-((1R,5S,6R)-6-(5-methyl-1H-pyrazol-3-yl)-3-azabicyclo[3.1.0]hexan-3-yl)-4-oxo-3,4-dihydroquinazolin-8-yl)ethyl)amino)-N-(methylsulfonyl) picolinamide], the figures for the half-inhibitory concentration (IC50) in assay [1] (setting [3]) and in assay [2] (setting [4]) were 250 to 500 nM and 1000 to 5000 nM, respectively.

For `Cc1cc([C@@H](C)Nc2ccc(Cl)nc2C(=O)NS(C)(=O)=O)c2nc(N3CCC4(CCC(O)CC4)CC3)n(C)c(=O)c2c1` [Compound 275, (R)-6-chloro-3-((1-(2-(9-hydroxy-3-azaspiro[5.5]undecan-3-yl)-3,6-dimethyl-4-oxo-3,4-dihydroquinazolin-8-yl)ethyl)amino)-N-(methylsulfonyl) picolinamide], the values for the IC50 in assay [1] (setting [5]) and in assay [2] (setting [6]) were less than 250 nM and no less than 5000 nM, respectively.

With `Cc1cc([C@@H](C)Nc2ccc(Cl)nc2C(=O)NS(C)(=O)=O)c2nc(N3CCC(n4cc(-c5ccccc5)cn4)CC3)n(C)c(=O)c2c1` [Compound 235, (R)-6-chloro-3-((1-(3,6-dimethyl-4-oxo-2-(4-(4-phenyl-1H-pyrazol-1-yl)piperidin-1-yl)-3,4-dihydroquinazolin-8-yl)ethyl)amino)-N-(methylsulfonyl) picolinamide], the IC50 was 250 to 500 nM in assay [1] (setting [5]) and no less than 5000 nM in assay [2] (setting [6]).

`Cc1cc([C@@H](C)Nc2ccc(Cl)nc2C(=O)NS(C)(=O)=O)c2nc(N3CCC(c4c(C)nn(C)c4C)CC3)n(C)c(=O)c2c1` [Compound 226, (R)-6-chloro-3-((1-(3,6-dimethyl-4-oxo-2-(4-(1,3,5-trimethyl-1H-pyrazol-4-yl)piperidin-1-yl)-3,4-dihydroquinazolin-8-yl)ethyl)amino)-N-(methylsulfonyl) picolinamide]: the IC50 is less than 250 nM in assay [1] (setting [5]) and 1000 to 5000 nM in assay [2] (setting [6]).

`Cc1cc([C@@H](C)Nc2ccc(Cl)nc2C(=O)NS(C)(=O)=O)c2nc(N3CCN(c4cncc(C)n4)CC3)n(C)c(=O)c2c1` [Compound 529, (R)-6-chloro-3-((1-(3,6-dimethyl-2-(4-(6-methylpyrazin-2-yl)piperazin-1-yl)-4-oxo-3,4-dihydroquinazolin-8-yl)ethyl)amino)-N-(methylsulfonyl) picolinamide]: the IC50 is less than 250 nM in assay [1] (setting [3]) and 1000 to 5000 nM in assay [2] (setting [4]).

With `Cc1cc([C@@H](C)Nc2ccc(Cl)nc2C(=O)NS(C)(=O)=O)c2nc(-c3ccc4cn[nH]c4c3)n(C)c(=O)c2c1` [Compound 834, (R)-3-((1-(2-(1H-indazol-6-yl)-3,6-dimethyl-4-oxo-3,4-dihydroquinazolin-8-yl)ethyl)amino)-6-chloro-N-(methylsulfonyl) picolinamide], the results for the IC50 in assay [1] (setting [3]) and in assay [2] (setting [4]) were 500 to 1000 nM and 1000 to 5000 nM, respectively.

On to `Cc1cc([C@@H](C)Nc2ccc(Cl)nc2C(=O)NS(C)(=O)=O)c2nc(N3Cc4cn(-c5ccc(C#N)cc5)nc4C3)n(C)c(=O)c2c1` [Compound 239, (R)-6-chloro-3-((1-(2-(2-(4-cyanophenyl)-2,6-dihydropyrrolo[3,4-c]pyrazol-5(4H)-yl)-3,6-dimethyl-4-oxo-3,4-dihydroquinazolin-8-yl)ethyl)amino)-N-(methylsulfonyl) picolinamide], for which the 50% inhibitory concentration (IC50) in assay [1] (setting [5]) was less than 250 nM; in assay [2] (setting [6]), 1000 to 5000 nM.

As for `Cc1cc([C@@H](C)Nc2ccc(Cl)nc2C(=O)NS(C)(=O)=O)c2nc(-c3ccc(-c4cn(C)cn4)cc3)n(C)c(=O)c2c1` [Compound 802, (R)-6-chloro-3-((1-(3,6-dimethyl-2-(4-(1-methyl-1H-imidazol-4-yl)phenyl)-4-oxo-3,4-dihydroquinazolin-8-yl)ethyl)amino)-N-(methylsulfonyl) picolinamide], the IC50 in assay [1] (setting [3]) was less than 250 nM; in assay [2] (setting [4]), 1000 to 5000 nM.

Take `Cc1cc([C@@H](C)Nc2ccc(Cl)nc2C(=O)NS(C)(=O)=O)c2nc(N3CC[C@@H](c4ccn(C)n4)CC3(C)C)n(C)c(=O)c2c1` (relative stereo) [Compound 324, 6-chloro-3-(((R)-1-(2-((R*)-2,2-dimethyl-4-(1-methyl-1H-pyrazol-3-yl)piperidin-1-yl)-3,6-dimethyl-4-oxo-3,4-dihydroquinazolin-8-yl)ethyl)amino)-N-(methylsulfonyl) picolinamide]: the IC50 in assay [1] (setting [5]) was less than 250 nM; in assay [2] (setting [6]), no less than 5000 nM.

Turning to `CCn1c(N2CCC(n3cc(C)cn3)CC2)nc2c([C@@H](C)Nc3ccc(Cl)nc3C(=O)NS(C)(=O)=O)cc(C)cc2c1=O` [Compound 526, (R)-6-chloro-3-((1-(3-ethyl-6-methyl-2-(4-(4-methyl-1H-pyrazol-1-yl)piperidin-1-yl)-4-oxo-3,4-dihydroquinazolin-8-yl)ethyl)amino)-N-(methylsulfonyl) picolinamide], the concentration for half-maximal inhibition (IC50) in assay [1] (setting [3]) is less than 250 nM; in assay [2] (setting [4]) it was 1000 to 5000 nM.

Take `Cc1cc([C@@H](C)Nc2ccc(Cl)nc2C(=O)NS(C)(=O)=O)c2nc([C@H]3[C@@H]4CN(c5ncc(F)cn5)C[C@@H]43)n(C)c(=O)c2c1` [Compound 827, 6-chloro-3-(((R)-1-(2-((1R,5S,6r)-3-(5-fluoropyrimidin-2-yl)-3-azabicyclo[3.1.0]hexan-6-yl)-3,6-dimethyl-4-oxo-3,4-dihydroquinazolin-8-yl)ethyl)amino)-N-(methylsulfonyl) picolinamide]: the IC50 in assay [1] (setting [3]) is 500 to 1000 nM; in assay [2] (setting [4]), no less than 5000 nM.

Consider `Cc1cc([C@@H](C)Nc2ccc(Cl)nc2C(=O)NS(C)(=O)=O)c2nc(N3C[C@@H]4[C@H](C3)[C@H]4c3n[nH]c(C)c3F)n(C)c(=O)c2c1` [Compound 594, 6-chloro-3-(((R)-1-(2-((1R,5S,6R)-6-(4-fluoro-5-methyl-1H-pyrazol-3-yl)-3-azabicyclo[3.1.0]hexan-3-yl)-3,6-dimethyl-4-oxo-3,4-dihydroquinazolin-8-yl)ethyl)amino)-N-(methylsulfonyl) picolinamide], for which the figures for the 50% inhibitory concentration (IC50) in assay [1] (setting [3]) and in assay [2] (setting [4]) were less than 250 nM and 1000 to 5000 nM, respectively.

`Cc1cc([C@@H](C)Nc2ccc(Cl)nc2C(=O)NS(C)(=O)=O)c2nc([C@H]3[C@@H]4CN(c5cnc(C)cn5)C[C@@H]43)n(C)c(=O)c2c1` [Compound 811, 6-chloro-3-(((R)-1-(3,6-dimethyl-2-((1R,5S,6r)-3-(5-methylpyrazin-2-yl)-3-azabicyclo[3.1.0]hexan-6-yl)-4-oxo-3,4-dihydroquinazolin-8-yl)ethyl)amino)-N-(methylsulfonyl) picolinamide]: the IC50 in assay [1] (setting [3]) is 250 to 500 nM; in assay [2] (setting [4]) it was no less than 5000 nM.

In the case of `Cc1cc([C@@H](C)Nc2ccc(Cl)nc2C(=O)NS(C)(=O)=O)c2nc(N3CCN(c4cc(C)n(C)n4)CC3)n(C)c(=O)c2c1` [Compound 634, (R)-6-chloro-3-((1-(2-(4-(1,5-dimethyl-1H-pyrazol-3-yl)piperazin-1-yl)-3,6-dimethyl-4-oxo-3,4-dihydroquinazolin-8-yl)ethyl)amino)-N-(methylsulfonyl) picolinamide], the IC50 was less than 250 nM in assay [1] (setting [3]) and no less than 5000 nM in assay [2] (setting [4]).

In the case of `Cc1cc([C@@H](C)Nc2ccc(Cl)nc2C(=O)NS(C)(=O)=O)c2nc(N3Cc4cccc(-c5ccnn5C)c4C3)n(C)c(=O)c2c1` [Compound 274, (R)-6-chloro-3-((1-(3,6-dimethyl-2-(4-(1-methyl-1H-pyrazol-5-yl)isoindolin-2-yl)-4-oxo-3,4-dihydroquinazolin-8-yl)ethyl)amino)-N-(methylsulfonyl) picolinamide], the IC50 is less than 250 nM in assay [1] (setting [5]) and 1000 to 5000 nM in assay [2] (setting [6]).
